From US11667651B2, “Aminopyridine derivatives as phosphatidylinositol phosphate kinase inhibitors” (HiberCell, Inc., priority 2017, dated 2023)

Experiments:
Format in all cases: biochemical
PIP4K2A [1] = molecular target: T1, PIP4K2A (Homo sapiens, UniProt P48426); experiment: Kinase Assay PIP4K2 A (Table 2); set-up: 4 nM PIP4K2A (full length protein, SignalChem); purchased SignalChem; details: compounds listed under IC50 bins
T1 sequence (P48426 1-406): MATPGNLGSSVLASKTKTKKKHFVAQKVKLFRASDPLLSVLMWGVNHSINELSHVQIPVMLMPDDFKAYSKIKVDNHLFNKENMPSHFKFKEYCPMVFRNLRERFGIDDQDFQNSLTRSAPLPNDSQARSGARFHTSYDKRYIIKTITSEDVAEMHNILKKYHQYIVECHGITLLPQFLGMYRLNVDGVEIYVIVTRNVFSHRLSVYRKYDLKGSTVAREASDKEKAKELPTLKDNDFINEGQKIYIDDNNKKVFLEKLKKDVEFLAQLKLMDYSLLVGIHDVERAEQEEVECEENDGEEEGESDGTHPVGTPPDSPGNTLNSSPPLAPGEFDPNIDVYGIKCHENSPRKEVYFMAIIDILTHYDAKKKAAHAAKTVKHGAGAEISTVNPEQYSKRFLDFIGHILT
In short: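 Full-length PIP4K2A (4 nM in the added mix, with 100 μM PI(5)P diC8) pre-incubated 15 min at RT with compounds (10-point, 3-fold series) in 20 mM MOPS pH 7.2, 25 mM MgCl2, 0.005% Tween 20. ATP added from a 60 μM solution, 1 h at RT; ADP-Glo luminescence, IC50 fitted from % inhibition versus DMSO.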

PIP4K2A [2] = molecular target: T1, PIP4K2A; experiment: ADP-glo kinase assay PIP4K 2A (Table 3); set-up: made in house; host or cells: E. coli; details: compounds listed under IC50 bins
In short: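 Full-length PIP4K2A (4 nM in the mix) with 100 μM PI(5)P diC8 pre-incubated 15 min with compound in MOPS pH 7.2, 25 mM MgCl2; ATP added (60 μM solution), 1 h at RT. ADP formed read by ADP-Glo luminescence; 10-point curves versus DMSO controls fitted to IC50.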

PIP4K2B = molecular target: T2, PIP4K2B (Homo sapiens, UniProt P78356); experiment: Trans-FI P kinase assay PIP4K2B (Table 4); details: compounds listed under IC50 bins; read-out: Trans-FI P kinase assays: PIP4K2B IC50
T2 construct: made in house; host or cells: E. coli
T2 sequence (P78356 1-416): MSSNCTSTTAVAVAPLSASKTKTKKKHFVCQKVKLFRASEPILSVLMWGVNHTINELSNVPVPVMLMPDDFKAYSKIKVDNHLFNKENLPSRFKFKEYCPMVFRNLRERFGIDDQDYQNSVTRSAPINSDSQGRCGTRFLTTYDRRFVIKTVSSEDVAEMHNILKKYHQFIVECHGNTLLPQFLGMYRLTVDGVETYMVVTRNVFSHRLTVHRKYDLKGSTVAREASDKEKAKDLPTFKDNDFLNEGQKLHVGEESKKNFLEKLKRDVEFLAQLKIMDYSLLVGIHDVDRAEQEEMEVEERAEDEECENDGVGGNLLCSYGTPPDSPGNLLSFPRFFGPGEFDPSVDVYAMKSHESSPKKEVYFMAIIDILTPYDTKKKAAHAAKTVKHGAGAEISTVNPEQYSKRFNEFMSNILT
In short: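 Transcreener FI detection (Ex 584/Em 623) of GDP, converted via calibration curve, gives IC50 from residual activity versus log concentration (highest 4.8 μM). Reaction: 80 μM PI5P plus DOPE carrier, 100 μM GTP, 5 nM GST-tagged enzyme, pH 7.3 HEPES with MgCl2 and 5% DMSO, 2 h after 1 h enzyme-compound preincubation at 27° C.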

SMILES | IC50 (PIP4K2A [1]) | IC50 (PIP4K2A [2]) | IC50 (PIP4K2B)
CN(C)C/C=C/C(=O)NCCCCCC(=O)Nc1cccc(CCC(=O)Nc2cncc(Nc3ccc(-c4ccc(C(=O)N(C)C)cc4)cn3)c2)c1 [Example 112, (E)-4-(6-((5-(3-(3-(6-(4-(dimethylamino)but-2-enamido)hexanamido)phenyl)propanamido)pyridin-3-yl)amino)pyridin-3-yl)-N,N-dimethylbenzamide] | 100 to 1000 nM | 100 to 1000 nM | > 1000 nM
O=C1CCCN1c1ccc(-c2ccc(Nc3cnc4c(c3)OCCO4)nc2)cc1 [Example 87, 1-(4-(6-((2,3-dihydro-[1,4]dioxino[2,3-b]pyridin-7-yl)amino)pyridin-3-yl)phenyl)pyrrolidin-2-one] | 10 to 100 nM | 100 to 1000 nM | 10 to 100 nM
CN(C)C/C=C/C(=O)Nc1ccc(C(=O)Nc2cncc(Nc3ccc(-c4ccc(C(=O)N(C)C)cc4)cn3)c2)cc1 [Example 117, (E)-4-(6-((5-(4-(4-(dimethylamino)but-2-enamido)benzamido)pyridin-3-yl)amino)pyridin-3-yl)-N,N-dimethylbenzamide] | 1 to 10 nM | 10 to 100 nM | 10 to 100 nM
CS(=O)(=O)N1CCOc2ncc(Nc3ccc(-c4ccc(N5CCCC5=O)cc4)cn3)cc21 [Example 156, 1-(4-(6-((1-(methylsulfonyl)-2,3-dihydro-1H-pyrido[2,3-b][1,4]oxazin-7-yl)amino)pyridin-3-yl)phenyl)pyrrolidin-2-one] | 1 to 10 nM | 10 to 100 nM | 10 to 100 nM
COCc1nc(Nc2cnc3c(c2)N2C(=O)CC[C@H]2CO3)ncc1-c1ccc(N2CCCC2=O)cc1 [Example 197, (S)-2-((4-(methoxymethyl)-5-(4-(2-oxopyrrolidin-1-yl)phenyl)pyrimidin-2-yl)amino)-6,6a,7,8-tetrahydro-9H-pyrido[2,3-b]pyrrolo[1,2-d][1,4]oxazin-9-one] | 1 to 10 nM | 1 to 10 nM | 1 to 10 nM
CN(C)C(=O)c1ccc(-c2ccc(Nc3cncc(NC(=O)c4ccc(F)cc4)c3)nc2)cc1 [Example 139, 4-(6-((5-(4-fluorobenzamido)pyridin-3-yl)amino)pyridin-3-yl)-N,N-dimethylbenzamide] | 10 to 100 nM | 10 to 100 nM | 10 to 100 nM

Results, then the compound that gave them:

IC50 (PIP4K2A [1]) | IC50 (PIP4K2A [2]) | IC50 (PIP4K2B) | SMILES
10 to 100 nM | 10 to 100 nM | 10 to 100 nM | O=C1CCCN1c1ccc(-c2cnc(Nc3cnc4c(c3)N3C(=O)CC[C@H]3CO4)cn2)cc1 [Example 162, (S)-2-((5-(4-(2-oxopyrrolidin-1-yl)phenyl)pyrazin-2-yl)amino)-6,6a,7,8-tetrahydro-9H-pyrido[2,3-b]pyrrolo[1,2-d][1,4]oxazin-9-one]
1 to 10 nM | 1 to 10 nM | 10 to 100 nM | CN(C)C(=O)c1ccc(-c2ccc(Nc3cncc(NC(=O)CCc4cccc(NC(=O)CCCCCN)c4)c3)nc2)cc1 [Example 111, 4-(6-((5-(3-(3-(6-aminohexanamido)phenyl)propanamido)pyridin-3-yl)amino)pyridin-3-yl)-N,N-dimethylbenzamide]
10 to 100 nM | 10 to 100 nM | 10 to 100 nM | O=C1CCCN1c1ccc(-c2ccc(Nc3cncc(N4CCN(Cc5cnco5)C4=O)c3)nc2)cc1 [Example 166, 1-(oxazol-5-ylmethyl)-3-(5-((5-(4-(2-oxopyrrolidin-1-yl)phenyl)pyridin-2-yl)amino)pyridin-3-yl)imidazolidin-2-one]
1 to 10 nM | 10 to 100 nM | 10 to 100 nM | COc1cncc(C(=O)Nc2cncc(Nc3ccc(-c4ccc(N5CCCC5=O)cc4)cn3)c2)c1 [Example 239, 5-methoxy-N-(5-((5-(4-(2-oxopyrrolidin-1-yl)phenyl)pyridin-2-yl)amino)pyridin-3-yl)nicotinamide]
10 to 100 nM | 10 to 100 nM | 10 to 100 nM | Cc1cc(N2CCCC2=O)ccc1-c1ccc(Nc2cnc3c(c2)N2C(=O)CC[C@H]2CO3)nc1 [Example 192, (S)-2-((5-(2-methyl-4-(2-oxopyrrolidin-1-yl)phenyl)pyridin-2-yl)amino)-6,6a,7,8-tetrahydro-9H-pyrido[2,3-b]pyrrolo[1,2-d][1,4]oxazin-9-one]
